Reference: paper PMC5142613 (The Biochemical journal, 2015)
“Also recorded” adds a separate entry of the source.

What was measured:
[1] = biological target: T1, ATAD2A bromodomain (Homo sapiens, UniProt Q6PL18); assay: ATAD2A AlphaScreen assay; type: binding; settings: for Displacement of histone peptide by small molecule: titration upon H4K5Ac peptide competition, Supplementary Fig. 3b
T1 sequence (Q6PL18 980-1092 limits assumed): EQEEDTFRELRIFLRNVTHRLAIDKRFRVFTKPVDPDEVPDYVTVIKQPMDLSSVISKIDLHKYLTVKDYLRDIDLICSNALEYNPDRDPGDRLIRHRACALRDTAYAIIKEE

[2] = biological target: ATAD2A bromodomain; assay: DiscoveRx competitive displacement assay; type: binding; settings: orthogonal assay; as previously described [22]
[3] = biological target: T1, ATAD2A bromodomain; assay: X-ray co-crystallography of ATAD2A complexes; type: binding; settings: for Binding site / binding mode in crystal structure: co-crystal structure with ATAD2A bromodomain; for Conformational form of ATAD2A in the complex: co-crystal structure, ZA loop position relative to PDB 3DAI
[4] = test system: ATAD2A bromodomain; settings: human cells (H3K14ac listed second, "respectively"); ref [7], [30]; cited from earlier work
[5] = test system: ATAD2A bromodomain; settings: ref [24]; cited from earlier work

Compound	Displacement of histone peptide by small molecule [1]	Affinity in DiscoveRx competitive displacement assay [2]	Binding site / binding mode in crystal structure [3]	Conformational form of ATAD2A in the complex [3]	Binding measured in vitro, compound 2 versus compound 1 ([1]; Fig. 5a, IC50 and Kd (AlphaScreen and DiscoveRx), comparison with compound 1)	Response of acetylated histone peptide in AlphaScreen panel ([1]; direct binding of biotinylated peptide to His-ATAD2A, chemiluminescent readout)	Histone interaction by co-immunoprecipitation, human cells [4]	Interaction in panning of histone peptide panels by peptide array [5]
CCOC(=O)Nc1cc(-c2ccc(C)c(NS(C)(=O)=O)c2)nn2c(C)nnc12 [Bromosporine, reference compound]	displaced	high μM						
COC(=O)c1cc(NS(=O)(=O)c2ccccc2)cc(-c2c(C)noc2C)c1 [compound 1, Methyl 3-(3,5-dimethylisoxazol-4-yl)-5-(phenylsulfonamido)benzoate]	displaced	high μM	acetyllysine mimetic binding mode	open form				
Cc1noc(C)c1-c1cc(NS(=O)(=O)c2ccccc2)cc(C(=O)O)c1 [compound 2, 3-(3,5-Dimethylisoxazol-4-yl)-5-(phenylsulfonamido)benzoic acid]	displaced	high μM	acetyllysine mimetic binding mode	open form	weaker binding			
ARTKQTARKSTGGK(Ac)APRKQLAGGK [H3K14ac, reference compound]			interacts along the end of αC helix, far from the acetyllysine binding site; also recorded: binds non-specifically			did not respond	histone interactions have been reported	have not been confirmed
